Experimental data as given in patent publication EP1025114B1, “3'-N-MODIFIED 6-O-SUBSTITUTED ERYTHROMYCIN KETOLIDE DERIVATIVES HAVING ANTIBACTERIAL ACTIVITY” (priority 1997, dated 1999).

Legend:
Test in all cases: In vitro antibacterial activity, agar dilution MIC
Format in all cases: cell-based
[1] = system: Micrococcus luteus ATCC 9341; settings: Micrococcus luteus ATCC 9341 (organism code OO); BHI agar, 35-37 °C, 20 to 24 hours; unit assumed
Method in brief: (§1)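 Agar dilution method in BHI medium with twelve graded concentrations; slow-growing organisms such as Streptococcus were inoculated at 1:10, others at 1:100. Endpoint: lowest concentration showing no growth, slight haze or sparsely isolated colonies versus the compound-free plate.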

[2] = system: Streptococcus bovis A-5169; settings: Streptococcus bovis A-5169 (organism code JJ); BHI agar, 35-37 °C, 20 to 24 hours; unit assumed
Method in brief: as §1

[3] = system: Streptococcus Pheumoniae ATCC6303; settings: Streptococcus Pheumoniae ATCC6303 (organism code XX); BHI agar, 35-37 °C, 20 to 24 hours; unit assumed
Method in brief: as §1

[4] = system: Nocardia Asteroides ATCC9970; settings: Nocardia Asteroides ATCC9970 (organism code VV); BHI agar, 35-37 °C, 20 to 24 hours; unit assumed
Method in brief: as §1

Candida albicans CCH 442 = Candida albicans CCH 442 (organism code TT); BHI agar, 35-37 °C, 20 to 24 hours; unit assumed
Method in brief: as §1

[5] = system: Staphylococcus aureus NCTC10649M; settings: Staphylococcus aureus NCTC10649M (organism code EE); BHI agar, 35-37 °C, 20 to 24 hours; unit assumed
Method in brief: as §1

[6] = system: Mycobacterium smegmatis ATCC 114; settings: Mycobacterium smegmatis ATCC 114 (organism code UU); BHI agar, 35-37 °C, 20 to 24 hours; unit assumed
Method in brief: as §1

[7] = system: Staphylococcus aureus 1775; settings: Staphylococcus aureus 1775 (organism code GG); BHI agar, 35-37 °C, 20 to 24 hours; unit assumed
Method in brief: as §1

[8] = system: Enterococcus faecium ATCC 8043; settings: Enterococcus faecium ATCC 8043 (organism code II); BHI agar, 35-37 °C, 20 to 24 hours; unit assumed
Method in brief: as §1

Escherichia coli JUHL = Escherichia coli JUHL (organism code QQ); BHI agar, 35-37 °C, 20 to 24 hours; unit assumed
Method in brief: as §1

[9] = system: Staphylococcus aureus A-5278; settings: Staphylococcus aureus A-5278 (organism code CC); BHI agar, 35-37 °C, 20 to 24 hours; unit assumed
Method in brief: as §1

[10] = system: Streptococcus pyogenes PIU 2548; settings: Streptococcus pyogenes PIU 2548 (organism code NN); BHI agar, 35-37 °C, 20 to 24 hours; unit assumed
Method in brief: as §1

[11] = system: Streptococcus Pheumoniae 5979; settings: Streptococcus Pheumoniae 5979 (organism code ZZ); BHI agar, 35-37 °C, 20 to 24 hours; unit assumed
Method in brief: as §1

[12] = system: Staphylococcus aureus CMX 553; settings: Staphylococcus aureus CMX 553 (organism code FF); BHI agar, 35-37 °C, 20 to 24 hours; unit assumed
Method in brief: as §1

[13] = system: Streptococcus agalactiae CMX 508; settings: Streptococcus agalactiae CMX 508 (organism code KK); BHI agar, 35-37 °C, 20 to 24 hours; unit assumed
Method in brief: as §1

Escherichia coli DC-2 = Escherichia coli DC-2 (organism code SS); BHI agar, 35-37 °C, 20 to 24 hours; unit assumed
Method in brief: as §1

[14] = system: Staphylococcus aureus ATCC 6538P; settings: Staphylococcus aureus ATCC 6538P (organism code AA); BHI agar, 35-37 °C, 20 to 24 hours; unit assumed
Method in brief: as §1

Escherichia coli SS = Escherichia coli SS (organism code RR); BHI agar, 35-37 °C, 20 to 24 hours; unit assumed
Method in brief: as §1

[15] = system: Staphylococcus aureus CMX 642A; settings: Staphylococcus aureus CMX 642A (organism code DD); BHI agar, 35-37 °C, 20 to 24 hours; unit assumed
Method in brief: as §1

[16] = system: Staphylococcus epidermidis 3519; settings: Staphylococcus epidermidis 3519 (organism code HH); BHI agar, 35-37 °C, 20 to 24 hours; unit assumed
Method in brief: as §1

[17] = system: Streptococcus Pheumoniae 5649; settings: Streptococcus Pheumoniae 5649 (organism code ZZA); BHI agar, 35-37 °C, 20 to 24 hours; unit assumed
Method in brief: as §1

[18] = system: Streptococcus pyogenes EES61; settings: Streptococcus pyogenes EES61 (organism code LL); BHI agar, 35-37 °C, 20 to 24 hours; unit assumed
Method in brief: as §1

[19] = system: Streptococcus pyogenes 930; settings: Streptococcus pyogenes 930 (organism code MM); BHI agar, 35-37 °C, 20 to 24 hours; unit assumed
Method in brief: as §1

[20] = system: Streptococcus Pheumoniae GYR 1171; settings: Streptococcus Pheumoniae GYR 1171 (organism code YY); BHI agar, 35-37 °C, 20 to 24 hours; unit assumed
Method in brief: as §1

[21] = system: Haemophilis Influenzae DILL AMP R; settings: Haemophilis Influenzae DILL AMP R (organism code WW); BHI agar, 35-37 °C, 20 to 24 hours; unit assumed
Method in brief: as §1

[22] = system: Micrococcus luteus ATCC 4698; settings: Micrococcus luteus ATCC 4698 (organism code PP); BHI agar, 35-37 °C, 20 to 24 hours; unit assumed
Method in brief: as §1

[23] = system: Staphylococcus aureus A5177; settings: Staphylococcus aureus A5177 (organism code BB); BHI agar, 35-37 °C, 20 to 24 hours; unit assumed
Method in brief: as §1

SMILES	MIC [1]	MIC [2]	MIC [3]	MIC [4]	MIC (Candida albicans CCH 442)	MIC [5]	MIC [6]	MIC [7]	MIC [8]	MIC (Escherichia coli JUHL)	MIC [9]	MIC [10]	MIC [11]	MIC [12]	MIC [13]	MIC (Escherichia coli DC-2)	MIC [14]	MIC (Escherichia coli SS)	MIC [15]	MIC [16]	also measured
C=C(C)CN(C)[C@H]1C[C@@H](C)O[C@@H](O[C@@H]2[C@@H](C)C(=O)[C@@H](C)C(=O)O[C@H](CC)[C@@]3(C)OC(=O)N[C@@H]3[C@@H](C)C(=O)[C@H](C)C[C@@]2(C)OCC=Cc2cnc3ccccc3c2)[C@@H]1O [Example 19, Compound of Formula (II); R is -CH2CH=CH-(3-quinolyl), R^p is H, W is absent, R^w is H, R^1 is CH2C(=CH2)CH3,R^2 is CH3]	0.05 µg/mL	0.02 µg/mL	≤ 0.004 µg/mL	0.1 µg/mL	> 100 µg/mL	0.39 µg/mL	0.2 µg/mL	> 100 µg/mL	0.1 µg/mL	> 100 µg/mL	> 100 µg/mL	0.2 µg/mL	128 µg/mL	0.2 µg/mL	0.02 µg/mL	> 100 µg/mL	0.2 µg/mL	0.78 µg/mL	0.2 µg/mL	0.2 µg/mL	MIC [17]: 0.12 µg/mL; MIC [18]: 0.01 µg/mL; MIC [19]: 6.2 µg/mL; MIC [20]: ≤ 0.004 µg/mL; MIC [21]: 4 µg/mL; MIC [22]: 0.1 µg/mL; MIC [23]: 0.2 µg/mL
CC[C@H]1OC(=O)[C@H](C)C(=O)[C@H](C)[C@@H](O[C@@H]2O[C@H](C)C[C@H](N(C)C3CC3)[C@H]2O)[C@](C)(OCC=Cc2cnc3ccccc3c2)C[C@@H](C)C(=O)[C@H](C)[C@H]2NC(=O)O[C@@]21C [Example 20, Compound of Formula (II); R is -CH2CH=CH-(3-quinolyl), R^p is H, W is absent, R^w is H, R^1 is cyclo-C3H5, R^2 is CH3]	0.39 µg/mL	0.2 µg/mL	0.03 µg/mL	3.1 µg/mL	> 100 µg/mL	3.1 µg/mL	3.1 µg/mL	> 100 µg/mL	0.39 µg/mL	> 100 µg/mL	> 100 µg/mL	0.39 µg/mL	16 µg/mL	1.56 µg/mL	0.2 µg/mL	> 100 µg/mL	1.56 µg/mL	3.1 µg/mL	1.56 µg/mL	3.1 µg/mL	MIC [17]: 0.25 µg/mL; MIC [18]: 0.1 µg/mL; MIC [19]: > 100 µg/mL; MIC [20]: 0.03 µg/mL; MIC [21]: 64 µg/mL; MIC [22]: 0.78 µg/mL; MIC [23]: 3.1 µg/mL
